# Experimental data reported in patent US12569452B2, “Ophthalmic compositions comprising F6H8” (NOVALIQ GMBH, priority 2017, dated 2026).
# Assays:
# Type in all cases: in vivo, human
# [1] = tested on: Dry Eye Disease (DED) patients with MGD involvement; assay: Ocular Surface Disease Index (OSDI), Phase 2 study Example 3; settings: BID, 2, 4 and 8 weeks
# Experimental: (§1) A Phase 2, Multi-Center, Randomized, Double-Masked, Saline-Controlled Study to Evaluate the Effect of 1-Perfluorohexyloctane (NOV03; F6H8) at two different dosing regimens on signs and symptoms of Dry Eye Disease (DED). The study was performed at 11 investigational cites in the United States. The study was reviewed and approved by the respective ethics committees and registered at www.clinicaltrials.gov (NCT03333057).
# The study is performed to evaluate the safety, efficacy and tolerability of F6H8 at two different dosing regimens compared to saline on signs and symptoms of Dry Eye Disease. […]
# The subjects were asked to fill out an OSDI© questionnaire (see for example, Schiffman R M, et al., Arch Ophthalmol. 2000; 118:615-621) consisting of 12 questions, and asked to respond on a scale of 0 to 4, with 0 corresponding to ‘none of the time’ and 4 corresponding to “all of the time”. The questions assess dry eye symptoms experienced by the patient within past week in terms of the following ocular symptoms: sensitivity to light, gritty sensation, pain or sore eyes, blurriness, and poor vision; vision-related function, in terms of problems in: reading, driving at night, working on a computer or bank machine, watching television; and environmental factors or triggers i.e. discomfort during: windy conditions, places with low humidity, and areas with air condition. […]
# [2] = tested on: patients with mild to moderate dry eye disease; assay: Corneal fluorescein staining, Example 2; settings: 4 times daily, 4 weeks
# Experimental: (§2) 48 patients (safety population) are randomized (1:1 ratio) to receive either F6H8 or Hydrabak. One drop of F6H8 (droplet volume=10-11 μl) or Hydrabak is instilled in each eye 4 times daily for 30 days. DED relevant clinical measures are recorded at Visit 1 (day 0, baseline), Visit 2 (15±2 days) and Visit 3 (30±3 days). The primary outcome variable includes Tear film thickness (TFT) as measured with high resolution optical coherence tomography (OCT), while secondary outcome variables comprised Lipid Layer Thickness (LLT) of the tear film (with LipiView Interferometer), Non-Invasive Tear Break Up Time (NITFBUT) with Bon Antares Tear Film Topographer, Dynamic Meibomian Gland Imaging (DMI) with LipiView Interferometer, Blink frequency (with LipiView interferometer), Dry Eye Visual Analogue Scale (VAS), Corneal fluorescein staining, Conjunctival lissamine green staining, Schirmer I test, Tear Film Break Up Time (TFBUT), Ocular Surface Disease Index (OSDI), Adverse Events (AEs) and others.
# [3] = tested on: Dry Eye Disease (DED) patients with MGD involvement; assay: Corneal fluorescein staining (NEI scale), Phase 2 study Example 3; settings: vs saline
# Experimental: as §1
# (§3) The study is performed to evaluate the safety, efficacy and tolerability of F6H8 at two different dosing regimens compared to saline on signs and symptoms of Dry Eye Disease.
# (§4) Study subjects receive one of the following treatments over a period of 4 visits on day 1, 15, 30 and 60: • (1) F6H8 (NOV03), 4 times daily (QID); • (2) F6H8 (NOV03), 2 times daily (BID); • (3) Saline solution (0.9% sodium chloride solution), 4 times daily (QID); • (4) Saline Solution (0.9% sodium chloride solution), 2 times daily (BID).
# (§5) In the BID treatment, study subjects instil bilaterally one drop in each lower eyelid conjunctival fornix two times daily. The instilled drop volume of F6H8 is about 10-12 μl, translating to a single dose of 13.5-16.2 mg (with F6H8 density=1.35 g/ml). […]
# [4] = tested on: patients with mild to moderate dry eye disease; assay: Lipid Layer Thickness (LLT) of the tear film with LipiView Interferometer, Example 2; settings: for Lipid Layer Thickness measured in the morning before first daily dosing (relative change from baseline in %): 4 times daily dosing
# Experimental: (§6) The study is conducted to evaluate the influence of 1-perfluorohexyl-octane (F6H8, NovaTears®) on tear film thickness in patients with mild to moderate dry eye disease. Herein the administration of 1-perfluorohexyl-octane is compared to Hydrabak (0.9% sodium chloride, Laboratoires Théa).
# as §2
# [5] = tested on: Dry Eye Disease (DED) patients with MGD involvement; assay: Eye Dryness Score on Visual Analog Scale (VAS), Phase 2 study Example 3; settings: BID, 2, 4 and 8 weeks
# Experimental: as §1, §3, §4, §5
# [6] = tested on: patients with mild to moderate dry eye disease; assay: Tear film thickness (TFT) by high resolution optical coherence tomography, Example 2
# Experimental: as §6, §2
# [7] = tested on: patients with mild to moderate dry eye disease; assay: Adverse events, Example 2; settings: 4 times daily for 30 days; all adverse effects mild, low incidence
# Experimental: as §2
# [8] = tested on: Dry Eye Disease (DED) patients with MGD involvement; assay: Adverse events, Phase 2 study Example 3; settings: daily dose 20-24 μl
# Experimental: as §1, §3, §4
# In the BID treatment, study subjects instil bilaterally one drop in each lower eyelid conjunctival fornix two times daily. The instilled drop volume of F6H8 is about 10-12 μl, translating to a single dose of 13.5-16.2 mg (with F6H8 density=1.35 g/ml).
smiles,measurement,setting,value
"CCCCCCCCC(F)(F)C(F)(F)C(F)(F)C(F)(F)C(F)(F)C(F)(F)F [F6H8, 1-perfluorohexyloctane]",Symptoms of dryness by OSDI score incl. total OSDI score over placebo,[1],highly statistical significant improvement
same,Corneal Staining reduction compared with Hydrabak group,[2],tended to be stronger reduced
same,Total corneal fluorescein staining (reduction of ocular surface damage of total corneal region),"[3]; BID dosing regimen, 8 weeks",met its prespecified primary efficacy endpoint
same,"Reduction of ocular surface damage of central, nasal and temporal corneal region","[3]; BID, fluorescein staining NEI scale",clear improvements
same,Lipid Layer Thickness measured in the morning before first daily dosing (relative change from baseline in %),[4]; 2 weeks,6.83%
same,Lipid Layer Thickness measured in the morning before first daily dosing (relative change from baseline in %),[4]; 4 weeks,4.10%
same,"LLT relative change from baseline, estimated least square mean difference F6H8 vs Hydrabak (post hoc MMRM)",[4]; values recorded before instillation,16.34%
same,"VAS symptoms of dryness (severity, frequency, awareness of dryness, blurred vision, sensitivity to light) over placebo",[5],highly statistical significant improvement
same,Tear Film Thickness after continuous dosing 4-times daily (relative change from baseline in %),"[6]; 2 weeks, 10 min",8.71%
same,Tear Film Thickness after continuous dosing 4-times daily (relative change from baseline in %),"[6]; 2 weeks, 20 min",8.57%
same,Tear Film Thickness after continuous dosing 4-times daily (relative change from baseline in %),"[6]; 2 weeks, before instillation",1.43%
same,Tear Film Thickness after continuous dosing 4-times daily (relative change from baseline in %),"[6]; 4 weeks, 10 min",9.12%
same,Tear Film Thickness after continuous dosing 4-times daily (relative change from baseline in %),"[6]; 4 weeks, 20 min",10.35%
same,Tear Film Thickness after continuous dosing 4-times daily (relative change from baseline in %),"[6]; 4 weeks, before instillation",3.22%
same,"Relative change (%) in Tear film thickness from baseline, F6H8 compared with Hydrabak (primary MMRM analysis)",[6]; 48 subjects of the safety population,significantly higher
same,"Tear film thickness, least squares mean difference F6H8 vs Hydrabak (MMRM, post-hoc)","[6]; Visit 1, safety population 48 subjects",1.29%
same,"Tear film thickness, least squares mean difference F6H8 vs Hydrabak (MMRM, post-hoc)","[6]; Visit 2, safety population 48 subjects",4.33%
same,"Tear film thickness, least squares mean difference F6H8 vs Hydrabak (MMRM, post-hoc)","[6]; Visit 3, reached significance",6.42%
same,Tear Film Thickness at study start (relative change from baseline in %),"[6]; single dose on Visit 1, 10 min after instillation",13.39%
same,Tear Film Thickness at study start (relative change from baseline in %),"[6]; single dose on Visit 1, 20 min after instillation",6.63%
same,Tear Film Thickness at study start (relative change from baseline in %),"[6]; single dose on Visit 1, 40 min after instillation",4.64%
same,Tear Film Thickness at study start (relative change from baseline in %),"[6]; single dose on Visit 1, 60 min after instillation",4.03%
same,Tear Film Thickness at study start (relative change from baseline in %),"[6]; single dose on Visit 1, 120 min after instillation",4.76%
same,Tear Film Thickness at study start (relative change from baseline in %),"[6]; single dose on Visit 1, 240 min after instillation",3.28%
same,Safety and tolerability in patients with DED,[7],safe and well tolerated
same,"Adverse effects, 2-times daily schedule (BID)",[8],trend towards less adverse effects
